# According to US7326721B2 (Hypnion, Inc., priority 2003, dated 2008):
# Values joined by “and” are separate entries in the source; they are usually repeats but may differ in a detail not shown here. Equal entries are not always repeated.
# What was measured:
# [1] = test system: Potassium Channel, Ca2+ Act., VI; experiment: Table 12 panel: Potassium Channel, Ca2+ Act.; assay type: binding; conditions: 1.0E−6, average N=2
# Excerpt: (§1) The percentage inhibition (average; N=2) for these receptors is shown below in Table 12.
# (§2) Values in Table 12 are expressed as percentage inhibition of specific binding, and these values represent the average of replicate tubes at each of the concentrations tested.
# Bradykinin, BK2 = Bradykinin, BK2 (Homo sapiens, UniProt P30411); experiment: Table 12 panel: Bradykinin, BK2; conditions: 1.0E−6, average N=2, read-out: percentage inhibition of specific binding
# Excerpt: as §1, §2
# [2] = test system: Glutamate, NMDA Agonist Site; experiment: Table 12 panel: Glutamate, NMDA Agonist; assay type: binding; conditions: 1.0E−6, average N=2
# Excerpt: as §1, §2
# Orphenin (hr) = target: T1, Orphenin (hr) (Homo sapiens, UniProt P41146); experiment: Table 12 panel: Orphenin; conditions: 1.0E−6, average N=2, read-out: percentage inhibition of specific binding
# T1 construct: expressed in transfected cells
# Excerpt: as §1, §2
# Glutamate, AMPA Site = experiment: Table 12 panel: Glutamate, AMPA; assay type: binding; conditions: 1.0E−6, average N=2
# Excerpt: as §1, §2
# GABA A, Agonist Site = experiment: Table 12 panel: GABA A, Agonist Site; assay type: binding; conditions: 1.0E−6, average N=2
# Excerpt: as §1, §2
# Dopamine Transporter = Dopamine Transporter (Homo sapiens, UniProt Q01959); experiment: Table 12 panel: Dopamine Transporter; conditions: 1.0E−6, average N=2, read-out: percentage inhibition of specific binding
# Excerpt: as §1, §2
# [3] = target: Cholecystokinin, CCK2 (CCKB) (Homo sapiens, UniProt P32239); experiment: Table 12 panel: CCK2; conditions: 1.0E−6, average N=2, read-out: percentage inhibition of specific binding
# Excerpt: as §1, §2
# [4] = test system: T2, Adrenergic, Alpha 2, Non-selective; experiment: Table 12 panel: Adrenergic, Alpha 2; assay type: binding; conditions: Adrenergic, Alpha 2; 1.0E−6; average N=2
# T2 construct: other: Adrenergic, Alpha 2; 1.0E−6; average N=2
# Adenosine, Non-selective = experiment: Table 12 panel: Adenosine, Non-selective; assay type: binding; conditions: 1.0E−6, average N=2
# Excerpt: as §1, §2
# Angiotensin II, AT2 = Angiotensin II, AT2 (Homo sapiens, UniProt P50052); experiment: Table 12 panel: Angiotensin II, AT2; conditions: 1.0E−6, average N=2, read-out: percentage inhibition of specific binding
# Excerpt: as §1, §2
# Estrogen = experiment: Table 12 panel: Estrogen; assay type: binding; conditions: 1.0E−6, average N=2
# Excerpt: as §1, §2
# [5] = test system: T3, Adrenergic, Alpha 1, Non-selective; experiment: Table 12 panel: Adrenergic, Alpha 1; assay type: binding; conditions: Adrenergic, Alpha 1; 1.0E−6; average N=2
# T3 construct: other: Adrenergic, Alpha 1; 1.0E−6; average N=2
# Crl:CD-I(ICR)BR mice = experiment: Acetic acid-induced abdominal spasm test in the mouse; assay type: in vivo; conditions: for Number of abdominal spasms recorded in a 25-minute period: oral
# Procedure: (§3) The objective of this example was to determine the analgesic activity of HY-2901 (Also referred to herein as Compound 49a) following oral administration. Analgesic activity was assessed abdominal spasm test in the rat and mouse. Analgesic activity is also assessed using the tail clip test in the mouse, tail flick test in the rat, Randall-Selitto test in the rat and comparisons are made with a vehicle control group. Reference compounds ASA (acetylsalicylic acid) and morphine are also included for comparison.
# (§4) The tail clip and tail flick test provide useful information about the central analgesic activity of the test article. The Randall-Selitto test provides information on the compound's ability to modify a hyperalgesic state and the abdominal spasm test provides information on the peripheral analgesic activity of the test article. The test article is administered by oral gavage, this being the intended clinical route of administration. The dose levels employed are expected to encompass the efficacy dose and provide an adequate safety margin.
# (§5) All formulations were prepared on each day of dosing. The test article (HY-2901) was formulated in 0.25% (w/v) MC at the highest concentration required. Lower doses were obtained by serial dilution of the highest concentration using 0.25% (w/v) MC. The reference compound, acetylsalicylic acid, was formulated in 0.25% (w/v) MC at the required concentrations. Brewer's yeast was formulated in water for injection at the required concentration. Acetic acid was diluted with water for injection to provide the required concentration for administration.
# (§6) An adequate number of male Crl:CD-I(ICR)BR mice and Wistar rats were obtained from Charles River (UK) Ltd., Margate, Kent. The mice were approximately 4 weeks of age and weigh between 18 and 22 g on arrival. The rats were approximately 5 weeks of age and weigh between 150 and 170 g on arrival. The age and weight of the animals at the start of the study was documented in the raw data and final report,
# Each animal received a single administration of vehicle, test article or reference compound by oral gavage, using a constant dose volume 10 mL/kg. Individual dose volumes were based on individual body weights obtained on the day of dosing.
# Forty-five minutes following oral administration each animal received a 0.25 mL intraperitoneal injection of 0.5% acetic acid. Animals were immediately placed into individual observation chambers and the number of abdominal spasms elicited over the subsequent 25-minute period was recorded.
# [6] = Brain levels of parent drug after oral administration; conditions: rat, 3 mg/kg
# Beagles = experiment: Acute dog study (toxicity and MTD, escalating oral doses); assay type: in vivo
# [7] = as above; assay type: in vivo; conditions: male, Beagle, in vivo; dog, oral gavage
# [8] = Protein binding in rat plasma; assay type: in vitro ADME
# Procedure: HY2901 was administered to rats, dogs, and cynomolgus monkeys at a dose of 3 mg/kg orally and intravenously. Plasma samples were collected from all species for pharmacokinetic analysis. […] HY2901 is 75% protein bound in rat plasma and 60% protein bound in human plasma.
# CYP 2C19 = target: T4, CYP 2C19 (Homo sapiens, UniProt P33261); experiment: Cytochrome P450 inhibition: CYP 2C19; assay type: in vitro ADME; conditions: human microsomal preparation
# T4 construct: in a commercially available human microsomal preparation; purchased; host or cells: human microsomal preparation
# Procedure: Cytochrome P450 inhibition was studied with HY2901 in vitro. […] In addition, the in vitro rate of metabolism in rat, dog, monkey, and human hepatocyte cultures was determined for HY2901.
# Wistar rats = experiment: Acetic acid-induced abdominal spasm test in the rat; assay type: in vivo
# Procedure: as §3, §4, §5, §6
# Each animal received a single administration of vehicle, test article or reference compound by oral gavage, using a constant dose volume […]. Individual dose volumes were based on individual body weights obtained on the day of dosing.
# Forty-five minutes following oral administration each animal received a 1 mL intraperitoneal injection of 1% acetic acid. Animals were immediately placed into individual observation chambers and the number of abdominal spasms elicited over the subsequent 25-minute period was recorded.
# hERG = hERG (Homo sapiens, UniProt Q12809); conditions: human, 10 µM, pH 7.4
# Chain of hERG (Q12809 whole entry): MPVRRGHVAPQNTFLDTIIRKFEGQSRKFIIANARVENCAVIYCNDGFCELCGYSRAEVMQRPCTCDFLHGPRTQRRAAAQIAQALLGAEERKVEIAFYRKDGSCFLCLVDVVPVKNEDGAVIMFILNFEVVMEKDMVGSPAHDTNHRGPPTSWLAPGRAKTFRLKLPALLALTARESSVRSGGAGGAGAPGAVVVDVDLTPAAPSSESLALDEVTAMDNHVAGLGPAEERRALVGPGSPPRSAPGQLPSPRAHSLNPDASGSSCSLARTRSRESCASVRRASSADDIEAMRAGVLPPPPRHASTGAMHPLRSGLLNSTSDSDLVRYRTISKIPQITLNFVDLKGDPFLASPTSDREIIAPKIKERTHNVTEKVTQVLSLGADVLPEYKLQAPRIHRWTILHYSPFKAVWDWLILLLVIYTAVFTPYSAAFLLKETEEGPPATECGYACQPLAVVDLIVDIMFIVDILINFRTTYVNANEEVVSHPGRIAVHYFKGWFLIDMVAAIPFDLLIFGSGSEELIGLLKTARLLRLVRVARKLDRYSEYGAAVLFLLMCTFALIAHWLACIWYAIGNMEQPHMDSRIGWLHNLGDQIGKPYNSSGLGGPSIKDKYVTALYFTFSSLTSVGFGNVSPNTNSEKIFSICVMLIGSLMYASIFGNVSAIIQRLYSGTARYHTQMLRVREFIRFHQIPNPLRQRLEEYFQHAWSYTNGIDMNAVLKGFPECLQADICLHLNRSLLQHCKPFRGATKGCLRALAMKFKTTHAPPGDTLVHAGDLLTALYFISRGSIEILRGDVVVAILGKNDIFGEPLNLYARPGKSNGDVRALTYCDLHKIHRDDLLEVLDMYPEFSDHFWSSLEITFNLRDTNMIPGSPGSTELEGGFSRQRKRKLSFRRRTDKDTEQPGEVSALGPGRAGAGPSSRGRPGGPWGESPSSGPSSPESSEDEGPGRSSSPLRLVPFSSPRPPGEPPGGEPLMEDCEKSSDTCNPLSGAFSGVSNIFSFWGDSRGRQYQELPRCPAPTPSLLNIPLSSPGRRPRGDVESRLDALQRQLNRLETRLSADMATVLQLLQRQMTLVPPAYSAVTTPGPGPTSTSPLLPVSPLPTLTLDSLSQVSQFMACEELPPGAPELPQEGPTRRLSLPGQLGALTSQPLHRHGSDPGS
# Chain of Cholecystokinin, CCK2 (CCKB) (P32239 whole entry): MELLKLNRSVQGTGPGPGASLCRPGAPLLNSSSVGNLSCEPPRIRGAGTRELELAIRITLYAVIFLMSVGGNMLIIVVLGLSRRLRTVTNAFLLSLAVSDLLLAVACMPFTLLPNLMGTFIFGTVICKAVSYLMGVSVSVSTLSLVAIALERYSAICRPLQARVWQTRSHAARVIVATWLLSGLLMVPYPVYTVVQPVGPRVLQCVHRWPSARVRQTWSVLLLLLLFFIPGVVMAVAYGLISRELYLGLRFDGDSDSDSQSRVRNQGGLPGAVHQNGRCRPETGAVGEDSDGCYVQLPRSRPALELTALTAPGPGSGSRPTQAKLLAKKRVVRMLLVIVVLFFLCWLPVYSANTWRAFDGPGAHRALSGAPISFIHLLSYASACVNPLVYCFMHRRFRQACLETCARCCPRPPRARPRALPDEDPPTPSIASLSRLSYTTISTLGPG
# T1 sequence (P41146 whole entry): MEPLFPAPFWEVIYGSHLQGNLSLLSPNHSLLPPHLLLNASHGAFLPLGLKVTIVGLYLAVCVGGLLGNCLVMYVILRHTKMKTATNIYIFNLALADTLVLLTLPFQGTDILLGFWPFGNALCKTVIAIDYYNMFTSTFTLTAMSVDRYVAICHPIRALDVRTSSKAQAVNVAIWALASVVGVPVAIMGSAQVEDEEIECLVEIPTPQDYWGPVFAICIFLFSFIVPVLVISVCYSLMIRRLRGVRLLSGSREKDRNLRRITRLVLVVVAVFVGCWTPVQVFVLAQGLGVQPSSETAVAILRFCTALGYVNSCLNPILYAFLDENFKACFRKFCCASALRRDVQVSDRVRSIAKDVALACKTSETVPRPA
# T4 sequence (P33261 whole entry): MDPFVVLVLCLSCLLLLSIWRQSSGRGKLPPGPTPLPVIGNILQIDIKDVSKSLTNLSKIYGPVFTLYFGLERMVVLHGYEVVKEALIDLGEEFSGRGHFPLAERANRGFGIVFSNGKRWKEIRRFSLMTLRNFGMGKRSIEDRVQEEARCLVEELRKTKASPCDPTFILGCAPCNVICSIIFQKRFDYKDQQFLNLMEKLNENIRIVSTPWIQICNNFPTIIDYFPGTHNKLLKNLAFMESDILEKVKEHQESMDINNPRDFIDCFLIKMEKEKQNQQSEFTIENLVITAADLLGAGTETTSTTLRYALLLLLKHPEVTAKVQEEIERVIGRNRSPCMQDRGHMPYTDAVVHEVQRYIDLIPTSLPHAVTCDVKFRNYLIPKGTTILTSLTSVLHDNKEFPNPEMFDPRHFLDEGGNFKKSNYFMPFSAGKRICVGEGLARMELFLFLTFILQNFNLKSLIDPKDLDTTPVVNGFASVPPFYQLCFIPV
# Chain of Bradykinin, BK2 (P30411 whole entry): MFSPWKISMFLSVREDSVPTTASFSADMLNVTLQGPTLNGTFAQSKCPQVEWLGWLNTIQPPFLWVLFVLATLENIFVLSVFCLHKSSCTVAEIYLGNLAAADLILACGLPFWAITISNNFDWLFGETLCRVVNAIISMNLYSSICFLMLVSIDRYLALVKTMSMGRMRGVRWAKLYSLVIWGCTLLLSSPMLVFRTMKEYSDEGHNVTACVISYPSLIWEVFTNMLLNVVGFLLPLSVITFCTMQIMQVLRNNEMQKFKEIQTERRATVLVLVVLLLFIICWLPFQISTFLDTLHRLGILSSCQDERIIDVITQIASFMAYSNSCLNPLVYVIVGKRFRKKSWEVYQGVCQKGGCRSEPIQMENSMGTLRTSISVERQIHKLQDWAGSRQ
# Chain of Dopamine Transporter (Q01959 whole entry): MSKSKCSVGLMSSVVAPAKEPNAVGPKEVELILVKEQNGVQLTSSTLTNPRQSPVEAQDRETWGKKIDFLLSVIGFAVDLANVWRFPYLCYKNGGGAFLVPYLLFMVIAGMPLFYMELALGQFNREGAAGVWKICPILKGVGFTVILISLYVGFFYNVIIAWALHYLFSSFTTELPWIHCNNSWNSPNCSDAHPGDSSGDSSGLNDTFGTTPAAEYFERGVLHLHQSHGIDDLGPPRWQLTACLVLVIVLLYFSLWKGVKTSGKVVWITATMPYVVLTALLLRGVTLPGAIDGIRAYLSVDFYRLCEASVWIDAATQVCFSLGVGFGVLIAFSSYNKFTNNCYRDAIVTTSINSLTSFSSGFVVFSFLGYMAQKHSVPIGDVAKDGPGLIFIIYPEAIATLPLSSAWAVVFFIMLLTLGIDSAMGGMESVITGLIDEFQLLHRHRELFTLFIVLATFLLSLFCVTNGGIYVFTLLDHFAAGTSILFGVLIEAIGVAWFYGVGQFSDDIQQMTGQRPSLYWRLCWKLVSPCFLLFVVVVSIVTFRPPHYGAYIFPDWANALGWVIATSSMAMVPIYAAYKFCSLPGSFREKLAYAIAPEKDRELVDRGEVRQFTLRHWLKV
# Chain of Angiotensin II, AT2 (P50052 whole entry): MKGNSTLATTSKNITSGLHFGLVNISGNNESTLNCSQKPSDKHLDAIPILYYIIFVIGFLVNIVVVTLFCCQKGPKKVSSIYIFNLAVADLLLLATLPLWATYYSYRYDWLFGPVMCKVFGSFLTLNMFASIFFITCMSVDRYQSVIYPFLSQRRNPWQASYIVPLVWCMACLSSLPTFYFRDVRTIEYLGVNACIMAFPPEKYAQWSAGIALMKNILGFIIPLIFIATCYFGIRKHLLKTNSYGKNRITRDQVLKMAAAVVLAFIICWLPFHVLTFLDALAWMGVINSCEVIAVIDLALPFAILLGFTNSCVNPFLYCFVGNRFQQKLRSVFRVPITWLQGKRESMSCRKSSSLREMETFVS
compound,measurement,setting,value
CC(CC(=O)O)N1CCC(=C2c3ccc(F)cc3COc3ccccc32)CC1 (stereo not shown) [Compound 37],percentage inhibition of specific binding,[1],−12.71% ^
same,inhibition at 1 µM,"Bradykinin, BK2",-3.04%
same,percentage inhibition of specific binding,[2],−5.56%
same,inhibition at 1 µM,Orphenin (hr),3.53%
same,percentage inhibition of specific binding,"Glutamate, AMPA Site",3.59%
same,percentage inhibition of specific binding,"GABA A, Agonist Site",20.18%
same,inhibition at 1 µM,Dopamine Transporter,2.14%
same,inhibition at 1 µM,[3],3.98%
same,percentage inhibition of specific binding,[4],−3.79%
same,percentage inhibition of specific binding,"Adenosine, Non-selective",6.49%
same,inhibition at 1 µM,"Angiotensin II, AT2",1.51%
same,percentage inhibition of specific binding,Estrogen,−4.68%
same,percentage inhibition of specific binding,[5],6.56%
CC(C)(CN1CCC(=C2c3ccc(F)cc3COc3ccccc32)CC1)C(=O)O [Compound 49a],Group mean (±sd) number of abdominal spasms recorded in a 25 minute period,Crl:CD-I(ICR)BR mice; oral 3 mg/kg,6 ± 6.2
same,Group mean (±sd) number of abdominal spasms recorded in a 25 minute period,Crl:CD-I(ICR)BR mice; oral 10 mg/kg,1 ± 2.0
same,Group mean (±sd) number of abdominal spasms recorded in a 25 minute period,Crl:CD-I(ICR)BR mice; oral 30 mg/kg,0 ± 0.0
same,Number of abdominal spasms recorded in a 25-minute period,"Crl:CD-I(ICR)BR mice; 3 mg/kg, individual animal data (animals 7-12), listed as HY-2901, 3 mg/kg",0 (2×) and 1 and 10 and 7 and 15
same,Number of abdominal spasms recorded in a 25-minute period,"Crl:CD-I(ICR)BR mice; 10 mg/kg, individual animal data (animals 13-18), listed as HY-2901, 10 mg/kg",0 (4×) and 2 and 5
same,Number of abdominal spasms recorded in a 25-minute period,"Crl:CD-I(ICR)BR mice; 30 mg/kg, individual animal data (animals 19-24)",0
same,Kp,[6],1
same,clinical signs of toxicity,Beagles; 25 mg/kg oral gavage,No clinical signs of toxicity
same,blood pressure,Beagles; 40 mg/kg,No significant changes
same,heart rates,Beagles; 40 mg/kg,unaffected
same,clinical signs of toxicity,Beagles; 40 mg/kg on Day 5,"body tremors, mild to moderate ataxia, excessive salivation and hypoactivity"
same,clinical signs of toxicity,Beagles; 50 mg/kg oral gavage,"Body tremors, mild to severe ataxia, and hypoactivity"
same,clinical signs of toxicity,Beagles; 75 mg/kg oral gavage,"Tremors (entire body, hind limbs, and/or head), mild to moderate ataxia, hypoactivity"
same,body weight,"Beagles; escalating doses 25-75 mg/kg, 40 mg/kg Day 5",minimal effect on body weight
same,MTD at 5 days,[7],75 mg/kg
same,protein bound,[8],75%
same,inhibition of CYP 2C19 activity,CYP 2C19,did not inhibit
same,Group mean (=sd) number pf abdominal spasms recorded in a 25-minute period,Wistar rats; oral 3 mg/kg,31 ± 9.0
same,"Number of abdominal spasms recorded in a 25-minute period, individual animal data","Wistar rats; oral 3 mg/kg, listed as HY-2901, 3 mg/kg",42 and 17 and 26 and 29 and 31 and 39
same,Group mean (=sd) number pf abdominal spasms recorded in a 25-minute period,Wistar rats; oral 10 mg/kg,25 ± 16.4
same,"Number of abdominal spasms recorded in a 25-minute period, individual animal data","Wistar rats; oral 10 mg/kg, listed as HY-2901, 10 mg/kg",57 and 23 and 20 and 24 and 19 and 9
same,Group mean (=sd) number pf abdominal spasms recorded in a 25-minute period,Wistar rats; oral 30 mg/kg,17 ± 13.8
same,"Number of abdominal spasms recorded in a 25-minute period, individual animal data","Wistar rats; oral 30 mg/kg, listed as HY-2901, 30 mg/kg",37 and 20 and 23 and 1 (2×) and 18
same,hERG at micromolar (% blocking of the hERG channel),hERG,10.9 @ 10%
